These results are taken from PubChem BioAssay AID1259408 (Genetic Toxicology Data Bank (GENE-TOX), 2018).

For the data set, the system named is GENE-TOX genotoxicity assays, various organisms and cells. In words: GENE-TOX mutagenicity studies. Conditions: for call: Assay Type: In vivo carcinogenicity studies.
[1] abbreviates: Species/Cell Type: Drosophila melanogaster, Assay Type: Sex-linked recessive lethal gene mutation, Assay Code: SRL+, Evaluation Type: Evaluation A (Pre-1980).
[2] abbreviates: Species/Cell Type: Neurospora crassa, Assay Type: Forward gene mutation, Assay Code: NEF+, Evaluation Type: Evaluation A (Pre-1980).
The mark [3] stands for this setting: Species/Cell Type: Allium cepa, Assay Type: Chromosome aberrations, Assay Code: ALC+, Evaluation Type: Evaluation A (Pre-1980).
The mark [4] stands for this setting: Species/Cell Type: Drosophila melanogaster, Assay Type: Sex-linked recessive lethal gene mutation, Assay Code: SRLT, Evaluation Type: Evaluation A (Pre-1980).
Setting [5] is: Species/Cell Type: Escherichia coli polA (W3110 vs P3478), Assay Type: Rec-assay, DNA effects (bacterial DNA repair), Assay Code: RE2-, Evaluation Type: Evaluation A (Pre-1980).
Where [6] appears, read: Species/Cell Type: Escherichia coli polA (W3119 vs P3478), Assay Type: Rec-assay, DNA effects (bacterial DNA repair), Assay Code: RE1-, Evaluation Type: Evaluation A (Pre-1980).
Where [7] appears, read: Species/Cell Type: Fischer rat embryo (RLV/1706) cells, Assay Type: Cell transformation, viral enhanced, Assay Code: CTR+, Evaluation Type: Evaluation A (Pre-1980).
Where [8] appears, read: Species/Cell Type: Mammalian polychromatic erythrocytes, Assay Type: Micronucleus test, chromosome aberrations, Assay Code: MNTT, Evaluation Type: Evaluation A (Pre-1980).
Setting [9] is: Species/Cell Type: Mouse, Sex: Male, Assay Type: Sperm morphology, Assay Code: SPI-, Evaluation Type: Evaluation A (Pre-1980).
Setting [10] is: Species/Cell Type: Neurospora crassa, Assay Type: Aneuploidy, chromosome aberrations, Assay Code: NEN-, Evaluation Type: Evaluation A (Pre-1980).
[11] abbreviates: Species/Cell Type: Nonhuman, Assay Code: CCG+, Evaluation Type: Evaluation A (Pre-1980).
The mark [12] stands for this setting: Species/Cell Type: Salmonella typhimurium (one or more of the five standard strains: TA98, TA100, TA1535, TA1537, and TA1538), Assay Type: Histidine reverse gene mutation, Ames assay, Assay Code: SAL-, Evaluation Type: Evaluation A (Pre-1980).
Setting [13] is: Species/Cell Type: Nonhuman, Assay Code: CCG-, Evaluation Type: Evaluation A (Pre-1980).
Where [14] appears, read: Species/Cell Type: Salmonella typhimurium (one or more of the five standard strains: TA98, TA100, TA1535, TA1537, and TA1538), Assay Type: Histidine reverse gene mutation, Ames assay, Assay Code: SAL+, Evaluation Type: Evaluation A (Pre-1980).
Where [15] appears, read: Species/Cell Type: Syrian hamster embryo (SA7/SHE) cells, Assay Type: Cell transformation, viral enhanced, Assay Code: CT7-, Evaluation Type: Evaluation A (Pre-1980).

The source made the active and inactive calls. No rule for the calls is given here.

Regarding `CC#CC#CC#Cc1ccccc1`, the mutagenic call (Species/Cell Type: Nonhuman, Assay Type: Sister-chromatid exchange (SCE) in vitro, Assay Code: SC2T, Evaluation Type: Evaluation B (Post-1980)) is “no conclusion”.

As to `CCN(CC)CCn1nc2c3c(c(C)ccc31)Sc1ccccc1-2`, the mutagenic call runs as follows: under setting [1], “active; positive”; (Species/Cell Type: Mouse lymphoma (L5178Y) cells, Assay Type: Forward gene mutation at the thymidine kinase (TK) locus, chromosome aberrations, Assay Code: L51+, Evaluation Type: Evaluation A (Pre-1980)) “active; positive”; under setting [2], “active; positive”.

With `NC(=O)c1ccc(/C=C/c2ccc([N+](=O)[O-])o2)cc1`, the mutagenic call was “active; positive” under setting [1]; “active; positive” under setting [2]; “active; positive” (Species/Cell Type: Neurospora crassa, Assay Type: Reverse gene mutation, Assay Code: NER+, Evaluation Type: Evaluation A (Pre-1980)); “active; positive” (Species/Cell Type: Saccharomyces cerevisiae, Assay Type: Mitotic recombination or gene conversion, Assay Code: YEH+, Evaluation Type: Evaluation A (Pre-1980)); “active; positive” (Species/Cell Type: Saccharomyces cerevisiae, Assay Type: Reverse gene mutation, Assay Code: YER+, Evaluation Type: Evaluation A (Pre-1980)).

For `CCCN(CCC)C(=O)SCC` (tested in a mixture with another compound), where the note is “Species/Cell Type: Zea mays (corn), Assay Type: Gene mutation, Assay Code: ZEM-, Evaluation Type: Evaluation A (Pre-1980)”, the mutagenic call was “inactive; negative”.

Turning to `Nc1ncn[nH]1`, the mutagenic call under setting [3] is “active; positive”; the mutagenic call (Species/Cell Type: Drosophila melanogaster, Assay Type: Aneuploidy, sex chromosome gain, chromosome aberrations, Assay Code: DAG-F, Evaluation Type: Evaluation A (Pre-1980)) was “inactive; negative”; the mutagenic call (Species/Cell Type: Drosophila melanogaster, Assay Type: Aneuploidy, whole sex chromosome loss, chromosome aberrations, Assay Code: DAC-F, Evaluation Type: Evaluation A (Pre-1980)) is “inactive; negative”; the mutagenic call under setting [4] is reported as “no conclusion”; the mutagenic call under setting [5] was “inactive; negative”; the mutagenic call under setting [6] is “inactive; negative”. The mutagenic call was “active; positive” under setting [7]; “active; positive” (Species/Cell Type: Hordeum vulgare (barley), Assay Type: Chromosome aberrations, Assay Code: HOC+, Evaluation Type: Evaluation A (Pre-1980)); “inactive; negative” (Species/Cell Type: Human diploid fibroblasts, Assay Type: Unscheduled DNA synthesis (UDS) in vitro, DNA effects, Assay Code: UDH-, Evaluation Type: Evaluation A (Pre-1980)); “no conclusion” under setting [8]; “inactive; negative” under setting [9]; “inactive; negative” under setting [10]. Further, the mutagenic call is “active; positive” (Species/Cell Type: Nonhuman, Assay Type: Sister-chromatid exchange (SCE) in vitro, Assay Code: SC2+D*, Activation: With metabolic activation, Dose Response: With dose response, Evaluation Type: Evaluation B (Post-1980)); “inactive; negative” (Species/Cell Type: Saccharomyces cerevisiae, Assay Type: Mitotic recombination or gene conversion, Assay Code: YEH-, Evaluation Type: Evaluation A (Pre-1980)); “inactive; negative” under setting [12]; “active; positive” (Species/Cell Type: Salmonella typhimurium, Assay Type: Forward and reverse gene mutation, host-mediated assay, Assay Code: HMA+, Evaluation Type: Evaluation A (Pre-1980)); “active; positive” (Species/Cell Type: Syrian hamster embryo (SHE) cells, Assay Type: Cell transformation, clonal assay, Assay Code: CTC+, Evaluation Type: Evaluation A (Pre-1980)); “active; positive” (Species/Cell Type: Vicia faba, Assay Type: Chromosome aberrations, Assay Code: VIC+, Evaluation Type: Evaluation A (Pre-1980)). The call under setting [11] is “active; positive”.

On to `O=C(N[C@H](CO)[C@H](O)c1ccc([N+](=O)[O-])cc1)C(Cl)Cl`, for which the mutagenic call by setting is: (Species/Cell Type: Arabidopsis species, Assay Type: Gene mutation, Assay Code: ARM-, Evaluation Type: Evaluation A (Pre-1980)) “inactive; negative”; (Species/Cell Type: Bacillus subtilis (H17 vs M45), Assay Type: Rec-assay, spot test, DNA effects (bacterial DNA repair), Assay Code: REW-, Evaluation Type: Evaluation A (Pre-1980)) “inactive; negative”; (Species/Cell Type: Bacillus subtilis (H17 vs M45T), Assay Type: Rec-assay, spot test, DNA effects (bacterial DNA repair), Assay Code: REXT, Evaluation Type: Evaluation A (Pre-1980)) “no conclusion”; under setting [4], “no conclusion”; (Species/Cell Type: Escherichia coli WP2, Assay Type: Tryptophan reverse gene mutation, Assay Code: WP2-, Evaluation Type: Evaluation A (Pre-1980)) “inactive; negative”; under setting [5], “inactive; negative”. Moreover, the mutagenic call is, setting by setting: under setting [6], “inactive; negative”; (Species/Cell Type: Rodents, Sex: Male, Assay Type: Dominant lethal test, Assay Code: DLT+, Evaluation Type: Evaluation A (Pre-1980)) “active; positive”; under setting [12], “inactive; negative”. The call (Species/Cell Type: Nonhuman, Assay Code: CCGT, Evaluation Type: Evaluation A (Pre-1980)) is “no conclusion”.

Consider `Nc1cc(S(=O)(=O)O)cc2c1C(=O)/C(=N/Nc1ccc(-c3ccc(N/N=C4/C(=O)c5c(N)cc(S(=O)(=O)O)cc5C=C4S(=O)(=O)O)cc3)cc1)C(S(=O)(=O)O)=C2`, for which the call under setting [11] is “active; positive”.

On to `Nc1ccc(N)cc1`, for which the mutagenic call under setting [3] was “active; positive”; the mutagenic call under setting [1] was “active; positive”; the mutagenic call under setting [7] is “active; positive”; the mutagenic call under setting [8] is recorded as “no conclusion”; the mutagenic call under setting [9] is “inactive; negative”; the mutagenic call under setting [10] was “inactive; negative”. Further, the mutagenic call (Species/Cell Type: Rodents, Sex: Male, Assay Type: Dominant lethal test, Assay Code: DLT-, Evaluation Type: Evaluation A (Pre-1980)) was “inactive; negative” and the mutagenic call (Species/Cell Type: Syrian hamster embryo (SA7/SHE) cells, Assay Type: Cell transformation, viral enhanced, Assay Code: CT7+, Evaluation Type: Evaluation A (Pre-1980)) was “active; positive”. Under setting [13], the call was “inactive; negative”.

As to `CCCN(N=O)/C(N)=N/[N+](=O)[O-]`, the mutagenic call was “active; positive” (Species/Cell Type: Arabidopsis species, Assay Type: Gene mutation, Assay Code: ARM+, Evaluation Type: Evaluation A (Pre-1980)) and “active; positive” under setting [14].

Take `CC(C)O`: the mutagenic call runs as follows: under setting [10], “inactive; negative”; under setting [15], “inactive; negative”.

As to `C=C(C)[C@@H]1CCC(C)=C[C@H]1c1c(O)cc(CCCCC)cc1O`, the mutagenic call is “inactive; negative” (Species/Cell Type: Fischer rat embryo (RLV/1706) cells, Assay Type: Cell transformation, viral enhanced, Assay Code: CTR-, Evaluation Type: Evaluation A (Pre-1980)); “active; positive” (Species/Cell Type: Human lymphocytes, Assay Type: Sister-chromatid exchange (SCE) in vivo, Assay Code: SCY+, Evaluation Type: Evaluation B (Post-1980)); “active; positive” (Species/Cell Type: Mammalian polychromatic erythrocytes, Assay Type: Micronucleus test, chromosome aberrations, Assay Code: MNT+, Evaluation Type: Evaluation B (Post-1980)); “inactive; negative” under setting [9].

For `O=c1[nH]cc(Cl)c(=O)[nH]1`, under “Species/Cell Type: Mouse, Sex: Male, Assay Type: Specific locus test, gene mutation, Assay Code: SLTT, Evaluation Type: Evaluation A (Pre-1980)”, the mutagenic call was “no conclusion”.

Consider `OC(c1ccc2c(c1)OCO2)C1CO1` (stereo not drawn), for which the mutagenic call under setting [4] was “no conclusion” and the mutagenic call under setting [14] was “active; positive”.

Turning to `CCC1(c2ccc(O)cc2)OC1(CC)c1ccc(O)cc1` (stereo not drawn), the mutagenic call (Species/Cell Type: Human, Assay Type: Sister-chromatid exchange (SCE) in vitro, Assay Code: SC1+D, Dose Response: With dose response, Evaluation Type: Evaluation B (Post-1980)) is “active; positive”.

As for `C[N+](C)(C)CCCl`, the call under setting [13] is “inactive; negative”. Also, under “Species/Cell Type: Vicia faba, Assay Type: Chromosome aberrations, Assay Code: VIC+D, Dose Response: With dose response, Evaluation Type: Evaluation A (Pre-1980)”, the mutagenic call was “active; positive”.

With `CCCCSP(=O)(SCCCC)SCCCC`, the mutagenic call (Species/Cell Type: Nonhuman, Assay Type: Sister-chromatid exchange (SCE) in vitro, Assay Code: SC2-, Evaluation Type: Evaluation B (Post-1980)) was “inactive; negative”.

In the case of `COC(=O)c1ccc(C(=O)OC)cc1`, the call under setting [13] is “inactive; negative”. Moreover, the mutagenic call under setting [15] was “inactive; negative”.

Turning to `Cc1cc(N(CCCl)CCCl)ccc1N=Nc1ccccc1C(=O)O`, under setting [1], the mutagenic call was “active; positive”.

As for `CN(C)C(=O)Nc1ccc(Oc2ccc(Cl)cc2)cc1`, the mutagenic call (Species/Cell Type: Saccharomyces cerevisiae, Assay Type: Mitotic recombination or gene conversion, Assay Code: YEC-, Evaluation Type: Evaluation A (Pre-1980)) was “inactive; negative”.
